Test results: US20250136581A1, “SUBSTITUTED TRIAZOLE DERIVATIVE, PREPARATION METHOD THEREFOR, PHARMACEUTICAL COMPOSITION THEREOF, AND USE THEREOF” (SHANGHAI SIMR BIOTECHNOLOGY CO., LTD., priority 2021, published 2025)

Molecular target: human α5β3γ2 receptors (α5-GABAA receptor) (Homo sapiens (Human), UniProt P18507+P31644)
Assay: 3H-flunitrazepam competition binding, human α5β3γ2 GABAA receptor
Conditions: HEK293 cell membranes, 1 nM 3H-flunitrazepam; read-out: α5-GABAAR Ki
Experimental: The affinity of the compound to each subtype of GABAA receptor was determined by competing for the binding of ^3H-flunitrazepam to HEK293 cells stably expressing human α1β3γ2, α2β3γ2, α3β3γ2, and α5β3γ2 receptors.
The cells were suspended in 50 mM Tris-HCl buffer (pH=7.4), homogenized 10 times on ice with a homogenizer for 20 seconds, and centrifuged at 1000 g for 10 minutes at 4° C. The supernatant was collected, and the above steps were repeated. The supernatant was centrifuged at 4° C. (33800 g; Thermo, rotor: A27-8×50) for 60 minutes, and the precipitate was resuspended in Tris buffer (50 mM Tris-HCl, 10 mM MgCl2, 0.5 mM EDTA, 10% glycerol). Protein was measured (BCA method, Pierce), and 1 mL aliquots were prepared and stored at −80° C.
The radioligand competition binding assay was performed in a 200 μL system (96-well plate) containing 100 μL of cell membrane. The concentration of ^3H-flunitrazepam was 1 nM and the concentration of the test compound was in the range of […]. Flumazenil was used as a control. 1 μL of 2 mM flumazenil (final concentration […]) was added to the low signal control well (Low control, LC), and 1 μL of DMSO was added to the high signal control well (High control, HC). The final concentration of target membrane protein was […]. All test compound sample storage solutions were 10 mM. The working concentration of the samples was to dilute all the samples to 0.2 mM with DMSO, followed by 4-fold serial gradient dilutions for a total of 8 concentration gradients. The 96-well plate was sealed with a sealing film, and then incubated on a shaker at room temperature for 1 hour. At the same time, the GF/C filter plate was soaked in soaking buffer (0.3% PEI, stored at 4° C.) for at least 0.5 hours. After the binding incubation was completed, the cells were collected onto a GF/C filter plate using a cell harvester. The plate was washed four times with washing buffer (50 mM Tris-HCl, pH 7.4, stored at 4° C.). After drying in a 50° C. oven for 1 hour, the bottom of the dried GF/C filter plate was sealed. The residual radioactivity on the filter membrane was detected using liquid scintillation counting. 50 μL of scintillation fluid was added to each well, and the plate was sealed. The readings were taken using a Microbeta2. The inhibitory activity of the test sample on the binding of ^3H-flunitrazepam to GABAA receptor membrane proteins was calculated, and the IC50 of each test sample was calculated by dose-effect curve fitting (GraphPad Prism 5 software), and the Ki of the sample was calculated from the IC50, thus evaluating the binding ability of the sample to the various subtypes of GABAA receptors.

| Compound | Ki [nM] |
| --- | --- |
| COc1cc(OCc2c(C)nnn2-c2ccc(C(F)F)cc2)nnc1N1CCNC(=O)C1 [Example 135, 4-(6-((1-(4-(Difluoromethyl)phenyl)-4-methyl-1H-1,2,3-triazol-5-yl)methoxy)-4-methoxypyridazin-3-yl)piperazin-2-one] | 1.05 |
| Cc1nnn(-c2ccc(C(F)F)cc2)c1COc1nnc(N2CCNC(=O)C2)c2ncccc12 [Example 137, 4-(5-((1-(4-(Difluoromethyl)phenyl)-4-methyl-1H-1,2,3-triazol-5-yl)methoxy)pyrido[2,3-d]pyridazin-8-yl)piperazin-2-one] | 0.49 |
| Cc1nnn(-c2ccc(C(F)F)cc2)c1COc1ccc(N2CCN(CCn3cccn3)C(=O)C2)nn1 [Example 138, 1-(2-(1H-Pyrazol-1-yl)ethyl)-4-(6-((1-(4-(difluoromethyl)phenyl)-4-methyl-1H-1,2,3-triazol-5-yl)methoxy)pyridazin-3-yl)piperazin-2-one] | 2.11 |
| COCCCN1CCN(c2ccc(OCc3c(C)nnn3-c3ccc(C(F)F)cc3)nn2)CC1=O [Example 140, 4-(6-((1-(4-(Difluoromethyl)phenyl)-4-methyl-1H-1,2,3-triazol-5-yl)methoxy)pyridazin-3-yl)-1-(3-methoxypropyl)piperazin-2-one] | 1.41 |
| Cc1nnn(-c2ccc(C(F)F)cc2)c1COc1ccc(N2CCN(C3CN(C(C)C)C3)C(=O)C2)nn1 [Example 142, 4-(6-((1-(4-(Difluoromethyl)phenyl)-4-methyl-1H-1,2,3-triazol-5-yl)methoxy)pyridazin-3-yl)-1-(1-isopropylazetidin-3-yl)piperazin-2-one] | 1.8 |
| Cc1nnn(-c2ccc(C(F)F)cc2)c1COc1ccc(N2CCN(CCCc3ccc(Cl)cc3)C(=O)C2)nn1 [Example 144, 1-(3-(4-Chlorophenyl)propyl)-4-(6-((1-(4-(difluoromethyl)phenyl)-4-methyl-1H-1,2,3-triazol-5-yl)methoxy)pyridazin-3-yl)piperazin-2-one] | 1.63 |
| COc1cnccc1NC(=O)C1CN(c2ccc(OCc3c(C)nnn3-c3ccc(C(F)F)cc3)nn2)C1 [Example 149, 1-(6-((1-(4-(Difluoromethyl)phenyl)-4-methyl-1H-1,2,3-triazol-5-yl)methoxy)pyridazin-3-yl)-N-(3-methoxypyridin-4-yl)azetidine-3-carboxamide] | 2.04 |
| Cc1nnn(-c2ccc(C(F)F)cc2)c1COc1ccc(N2CC(C(=O)Nc3cnn(C(C)C)c3)C2)nn1 [Example 150, 1-(6-((1-(4-(Difluoromethyl)phenyl)-4-methyl-1H-1,2,3-triazol-5-yl)methoxy)pyridazin-3-yl)-N-(1-isopropyl-1H-pyrazol-4-yl)azetidine-3-carboxamide] | 2.35 |
| Cc1nnn(-c2ccc(C(F)F)cc2)c1COc1ccc(N2CC(C(=O)Nc3cccnc3F)C2)nn1 [Example 151, 1-(6-((1-(4-(Difluoromethyl)phenyl)-4-methyl-1H-1,2,3-triazol-5-yl)methoxy)pyridazin-3-yl)-N-(2-fluoropyridin-3-yl)azetidine-3-carboxamide] | 1.36 |
| COc1cccnc1NC(=O)C1CN(c2ccc(OCc3c(C)nnn3-c3ccc(C(F)F)cc3)nn2)C1 [Example 152, 1-(6-((1-(4-(Difluoromethyl)phenyl)-4-methyl-1H-1,2,3-triazol-5-yl)methoxy)pyridazin-3-yl)-N-(3-methoxypyridin-2-yl)azetidine-3-carboxamide] | 1.65 |
| Cc1nnn(-c2ccc(C(F)F)cc2)c1COc1ccc(N2CC(C(=O)Nc3cnn(C(F)F)c3)C2)nn1 [Example 153, N-(1-(Difluoromethyl)-1H-pyrazol-4-yl)-1-(6-((1-(4-(difluoromethyl)phenyl)-4-methyl-1H-1,2,3-triazol-5-yl)methoxy)pyridazin-3-yl)azetidine-3-carboxamide] | 1.89 |
| Cc1nnn(-c2ccc(C(F)F)cc2)c1COc1ccc(N2CC(C(=O)N3CCOC(C)(C)C3)C2)nn1 [Example 158, (1-(6-((1-(4-(Difluoromethyl)phenyl)-4-methyl-1H-1,2,3-triazol-5-yl)methoxy)pyridazin-3-yl)azetidin-3-yl)(2,2-dimethylmorpholino)methanone] | 4.31 |
| COCc1ccc(-n2nnc(C)c2COc2ccc(N3CCN4CCNC(=O)[C@@H]4C3)nn2)cc1 [Example 161, (S)-8-(6-((1-(4-(Methoxymethyl)phenyl)-4-methyl-1H-1,2,3-triazol-5-yl)methoxy)pyridazin-3-yl)hexahydro-2H-pyrazino[1,2-a]pyrazin-1(6H)-one] | 13.8 |
| Cc1nnn(-c2ccc(Cl)cc2)c1COc1ccc(N2CCNC(=O)C2)nn1 [Example 164, 4-(6-((1-(4-Chlorophenyl)-4-methyl-1H-1,2,3-triazol-5-yl)methoxy)pyridazin-3-yl)piperazin-2-one] | 2.4 |
| Cc1nnn(-c2ccc(C(F)F)cc2F)c1COc1ccc(N2CCNC(=O)C2)nn1 [Example 167, 4-(6-((1-(4-(Difluoromethyl)-2-fluorophenyl)-4-methyl-1H-1,2,3-triazol-5-yl)methoxy)pyridazin-3-yl)piperazin-2-one] | 1.08 |
| Cc1nnn(-c2ccc(C(F)F)cc2)c1COc1ccc(C2CCNC(=O)C2)cn1 (stereo not drawn) [Example 170, 4-(6-((1-(4-(Difluoromethyl)phenyl)-4-methyl-1H-1,2,3-triazol-5-yl)methoxy)pyridin-3-yl)piperidin-2-one] | 2.3 |
| CCNC(=O)C1=CCCN(c2ccc(OCc3c(C)nnn3-c3ccc(C(F)F)cc3)nn2)C1 [Example 172, 1-(6-((1-(4-(Difluoromethyl)phenyl)-4-methyl-1H-1,2,3-triazol-5-yl)methoxy)pyridazin-3-yl)-N-ethyl-1,2,5,6-tetrahydropyridine-3-carboxamide] | 0.67 |
| Cc1nnn(-c2ccc(C(F)F)cc2)c1COc1ccc(N2CC(=O)N3CCOC[C@@H]3C2)nn1 [Example 174, (S)-8-(6-((1-(4-(Difluoromethyl)phenyl)-4-methyl-1H-1,2,3-triazol-5-yl)methoxy)pyridazin-3-yl)hexahydropyrazino[2,1-c][1,4]oxazin-6(1H)-one] | 1.39 |
| Cc1nnn(-c2ccc(C(F)F)cc2)c1COc1ccc(N2CC(=O)N3CCS(=O)(=O)C[C@H]3C2)nn1 [Example 175, (R)-8-(6-((1-(4-(Difluoromethyl)phenyl)-4-methyl-1H-1,2,3-triazol-5-yl)methoxy)pyridazin-3-yl)hexahydropyrazino[2,1-c][1,4]thiazin-6(1H)-one 2,2-dioxide] | 2.63 |
| Cc1nnn(-c2ccc(C(F)F)cc2)c1COc1ccc(N2CC(=O)N3CCS(=O)(=O)C[C@@H]3C2)nn1 [Example 176, (S)-8-(6-((1-(4-(Difluoromethyl)phenyl)-4-methyl-1H-1,2,3-triazol-5-yl)methoxy)pyridazin-3-yl)hexahydropyrazino[2,1-c][1,4]thiazin-6(1H)-one 2,2-dioxide] | 1.34 |
| Cc1nnn(-c2ccc(C(F)F)cc2)c1COc1ccc(N2CC(=O)N3C[C@@H]4C[C@]3(CO4)C2)nn1 [Example 177, (3S,9aR)-8-(6-((1-(4-(Difluoromethyl)phenyl)-4-methyl-1H-1,2,3-triazol-5-yl)methoxy)pyridazin-3-yl)tetrahydro-1H-3,9a-methanopyrazino[2,1-c][1,4]oxazin-6(7H)-one] | 1.26 |
